Data on 6 compounds can be found in US20250242030A1, “COMPOSITIONS COMPRISING A NON-BIOABSORBABLE POLYMER AND METABOLIC INHIBITOR” (Board of Trustees of Michigan State University, priority 2022, published 2025).

Each structure is given as a SMILES string.

Format in all cases: cell-based, mouse
For data set [1], the system named is BMDMs. Kind of data set: Cytokine and chemokine multiplex assay in BMDM supernatants. The source says:
(§1) BMDMs derived from C57BL/6J mice (Jackson Laboratories) of 3-4 months were used. Mouse embryonic fibroblasts (NIH 3T3 cells, hereafter “MEFs”) were stably transfected with a Sleeping Beauty transposon plasmid (pLuBIG) having a bidirectional promoter driving an improved firefly luciferase gene (fLuc) and a fusion gene encoding a Blasticidin-resistance marker (BsdR) linked to eGFP (BGL). For temporal (IVIS) experiments lasting 12 days, 5,000 BGL cells were initially seeded in each well of a 96-well tissue culture plate in 200 μL if complete medium. For ATP, crystal violate, and Seahorse assays, 20,000 wild-type MEFs were seeded. For ATP, crystal violate, and cytokine/chemokine assays, 50,000 BMDMs were seeded. 60,000 BMDMs were seeded for the Seahorse assays. For IVIS experiments with glycolytic inhibitors, 20,000 BGL cells were initially seeded. Complete medium comprised DMEM medium, 10% heat inactivated fetal bovine serum (FBS), and 100 U/mL penicillin/streptomycin (all from ThermoFisher Scientific).
Cytokine and chemokine levels were measured using a MILLIPLEX MAP mouse magnetic bead multiplex kit (MilliporeSigma) to assess for IL-6, MCP-1, TNF-α, IL-1β, IL-4, IL-10, IFN-γ, and 1L-13 protein expression in supernatants. Data was acquired using Luminex 200 (Luminex Corporation) by the xPONENT software (Version 3.1, Luminex Corporation). […] Values exceeding the dynamic range of the assay, in accordance with manufacturer's instruction, were excluded. Additionally, IL-6 ELISA kits (RayBiotech) for supernatants were used according to manufacturer's instructions.

In data set [2] the test system is macrophages. Kind of data set: mitoSOX Red staining for mitochondrial ROS. Particulars: added to PE-exposed macrophages, compared to macrophages exposed to only PE. An excerpt: To test whether increased OCR at complex I (FIG. 8c) fueled ROS production in the mitochondrion, macrophages were stained with mitoSOX Red. Exposure to LPS or PE particles increased mitochondrial reactive oxygen species (ROS) relative to untreated macrophages. Addition of metformin decreased mitochondrial ROS compared to macrophages exposed to only PE. Mitochondrial membrane potential is critical for reverse electron transport (RET) at complex I, and subsequent generation of mitochondrial ROS.

In data set [3] the test system is BMDMs. Kind of data set: Bioenergetic (ATP) levels in BMDMs. Particulars: PE-exposed BMDMs with inhibitor of mitochondrial respiration. As for the experimental part: (§2) Bioluminescence was measured using an IVIS Spectrum in vivo imaging system (PerkinElmer) after addition of 150 μg/mL of D-luciferin (PerkinElmer). Living Image (Version 4.5.2, PerkinElmer) was used for acquiring bioluminescence on the IVIS Spectrum. Standard ATP/ADP kits (Sigma-Aldrich) containing D-luciferin, luciferase, and cell lysis buffer were used according to manufacturer's instructions. Luminescence at integration time of 1,000 ms was obtained using the SpectraMax M3 Spectrophotometer (Molecular Devices) and SoftMax Pro software (ver. 7.0.2).
as §1
(§3) Preparation of ultra-high molecular weight polyethylene particles are described in Example 1 above. The bioenergetics measurements, Seahorse assay, crystal violet assay, and cytokine and chemokine assays were conducted as described in Example 1. Inhibitors rotenone, metformin, oligomycin, and antimycin A were obtained from MilliporeSigma. The reagents were reconstituted in complete medium (described above).

Data set [4] relates to BMDMs. Kind of data set: Seahorse assay (ECAR, PER, OCR) in BMDMs. As to conditions: PE-exposed BMDMs in presence of inhibitor.
Description: as §1
To determine the metabolic pathways responsible for the observed bioenergetic changes, Seahorse assays were used to measure oxygen consumption rate (OCR), extracellular acidification rate (ECAR) and lactate-linked proton efflux rate (PER) in a customized medium (pH 7.4). Basal measurements of OCR, ECAR, and PER were obtained in real time using the Seahorse XFe-96 Extracellular Flux Analyzer (Agilent Technologies). Prior to running the assay, cell culture medium was washed with and replaced by the Seahorse XF DMEM medium (pH 7.4) supplemented with 25 mM D-glucose and 4 mM glutamine. The Seahorse plates were equilibrated in a non-CO2 incubator for an hour prior to the assay. The Seahorse ATP rate and cell energy phenotype assays were run according to manufacturer's instruction and all reagents for the Seahorse assays were sourced from Agilent Technologies. Wave software (Version 2.6.1) was used to export Seahorse data directly as means±standard deviation (SD).
Seahorse assays measures ECAR as an index of glycolytic flux, OCR as an index of oxidative phosphorylation and PER as an index of monocarboxylate transporter function in live cells, and are used to assess for metabolic reprogramming. […] (FIGS. 3a-c)
as §3

The subject of data set [5] is macrophages. Kind of data set: TMRM staining for mitochondrial membrane potential. Particulars: metformin added to exposed cells.
In data set [6] the test system is MEFs. Kind of data set: Total ATP levels in lysed MEFs (ATP/ADP kit). As to conditions: PE-exposed MEFs with inhibitor of mitochondrial respiration. As for the experimental part:
as §2, §1

The subject of data set [7] is MEFs. Kind of data set: Crystal violet cell viability assay in MEFs. As to conditions: MEFs treated with metabolic inhibitors; data not shown.
Description: as §1
(§4) Cell viability was measured using the crystal violet staining assay at room temperature. 50 μL media containing cells is incubated with 150 μL of 99.9% methanol for 15 minutes. […] Absorbance (optical density) was acquired at 570 nm using the SpectraMax M3 Spectrophotometer (Molecular Devices) and SoftMax Pro software (ver. 7.0.2).

Data set [8] has as its system BMDMs. Kind of data set: Crystal violet cell viability assay in BMDMs. As to conditions: BMDMs treated with metabolic inhibitors; data not shown.
Description: as §1, §4

Setting [9] is: 1 mM inhibitor, BMDMs exposed to ultra-high molecular weight PE particles.
Where [10] appears, read: metformin, BMDMs treated with PE.

For the compound `NOCC(=O)O` [aminooxyacetic acid], in data set [1] (setting [9]), the IL-4 result is on record as “increased”, the IL-10 levels entry is “increased”, the “expression of IL-1β” value is given as “decreased” and the “expression of IL-6” value is given as “decreased”. Moreover, in data set [1] (setting [9]), the “expression of MCP-1” value is listed as “decreased” and the “expression of TNF-α” value was “decreased”.
As to `CN(C)C(=N)N=C(N)N` [metformin], in data set [1] (setting [10]), the IL-1β result was “decreases”, the IL-4 entry was “did not increase”, the IL-6 entry is recorded as “decreases” and the IL-10 entry is given as “did not increase”. Also, in data set [1] (setting [10]), the MCP-1 entry was “decreases” and the TNF-α expression entry was “not mitigated”. The “mitochondrial ROS” value in data set [2] is given as “decreased”. In addition, the “ATP levels in PE-exposed cells” value in data set [3] was “did not impact”. For the same compound, in data set [4], the ECAR entry was “reduced”, the OCR result is given as “reduced” and the PER result is on record as “reduced”. Besides, the “elevated mitochondrial membrane potential” value in data set [5] was “decreases”. The “ATP levels in PE-exposed cells” value in data set [6] is reported as “did not impact”.
`O=CC[C@@H](O)[C@H](O)[C@H](O)CO` [2DG, 2-deoxyglucose]: the cell viability entry in data set [7] is listed as “did not lower”. Besides, in data set [1] (setting [9]), the IL-4 result was “increased”, the “expression of IL-1β” value was “decreased”, the “expression of IL-6” value is “decreased” and the “expression of MCP-1” value is given as “decreased”. Besides, the “expression of TNF-α” value in data set [1] (setting [9]) was “decreased”. The cell viability result in data set [8] is on record as “did not lower”.
Take `O=C(C=Cc1cccnc1)c1ccncc1` [3PO, 3-(3-pyridinyl)-1-(4-pyridinyl)-2-propen-1-one]: in data set [7], the cell viability result is reported as “did not lower”. Besides, in data set [1] (setting [9]), the IL-4 result is reported as “increased”, the “expression of IL-1β” value is on record as “decreased”, the “expression of IL-6” value is recorded as “decreased” and the “expression of MCP-1” value was “decreased”. Besides, the “expression of TNF-α” value in data set [1] (setting [9]) is “decreased”. In addition, in data set [8], the cell viability entry was “did not lower”.
In the case of `C=C(C)[C@H]1Cc2c(ccc3c2O[C@@H]2COc4cc(OC)c(OC)cc4[C@@H]2C3=O)O1` [rotenone], the “ATP levels in PE-exposed cells” value in data set [3] was “did not impact”. Moreover, in data set [4], the ECAR result is reported as “did not impact”, the OCR result is “decrease” and the PER entry is “did not impact”. The “ATP levels in PE-exposed cells” value in data set [6] was “did not impact”.
With `CC[C@H]1/C=C/C=C/C[C@@H](C)[C@H](O)[C@@](C)(O)C(=O)[C@@H](C)[C@H](O)[C@@H](C)C(=O)[C@@H](C)[C@H](O)[C@@H](C)/C=C/C(=O)O[C@@H]2[C@H](C)[C@H](CC1)O[C@]1(CC[C@H](C)[C@H](C[C@@H](C)O)O1)[C@H]2C` [oligomycin], the “ATP levels in PE-exposed cells” value in data set [3] and in data set [6] was “did not impact” in each case. Further, the OCR result in data set [4] was “affected”.
